According to PubChem BioAssay AID1259407 (Chemical Carcinogenesis Research Information System (CCRIS), 2018):
Active and inactive are the calls of the source. No rule for the calls is given here.

Tested on: CCRIS mutagenicity, Ames/micronucleus/aberration tests
Assay: CCRIS mutagenicity studies
[1] = Test System: AMES SALMONELLA TYPHIMURIUM, Strain/Indicator: TA98, Metabolic Activation: NONE, Method: STANDARD PLATE
[2] = Test System: AMES SALMONELLA TYPHIMURIUM, Strain/Indicator: TA98, Metabolic Activation: RAT, LIVER, S-9, AROCLOR 1254, Method: STANDARD PLATE
[3] = Test System: AMES SALMONELLA TYPHIMURIUM, Strain/Indicator: TA100, Metabolic Activation: NONE, Method: STANDARD PLATE
[4] = Test System: AMES SALMONELLA TYPHIMURIUM, Strain/Indicator: TA98, Metabolic Activation: NONE, Method: PREINCUBATION
[5] = Test System: AMES SALMONELLA TYPHIMURIUM, Strain/Indicator: TA100, Metabolic Activation: NONE, Method: PREINCUBATION
[6] = Test System: AMES SALMONELLA TYPHIMURIUM, Strain/Indicator: TA1535, Metabolic Activation: NONE, Method: PREINCUBATION
[7] = Test System: AMES SALMONELLA TYPHIMURIUM, Strain/Indicator: TA1537, Metabolic Activation: NONE, Method: PREINCUBATION

Structure (SMILES): O=Nc1ccc(Sc2ccccc2)cc1
- mutagenic call (Test System: AMES SALMONELLA TYPHIMURIUM, Strain/Indicator: TA98(NR), Metabolic Activation: NONE, Method: STANDARD PLATE): active; positive
- mutagenic call [1]: active; positive
- mutagenic call [2]: active; positive

Structure (SMILES): CC1CNC(=O)N1c1ncc([N+](=O)[O-])s1 (configuration not stated)
- mutagenic call [1]: active; positive
- mutagenic call [3]: active; positive

Structure (SMILES): O=C1C=Cc2ccc3c4c(ccc1c24)C(=O)C=C3
- mutagenic call (Test System: AMES SALMONELLA TYPHIMURIUM, Strain/Indicator: TA97, Metabolic Activation: NONE, Method: STANDARD PLATE): active; positive
- mutagenic call (Test System: AMES SALMONELLA TYPHIMURIUM, Strain/Indicator: TA97, Metabolic Activation: RAT, LIVER, S-9, PCB, Method: STANDARD PLATE): active; positive
- mutagenic call [1]: inactive; negative
- mutagenic call (Test System: AMES SALMONELLA TYPHIMURIUM, Strain/Indicator: TA98, Metabolic Activation: RAT, LIVER, S-9, PCB, Method: STANDARD PLATE): inactive; negative
- mutagenic call [3]: inactive; negative
- mutagenic call (Test System: AMES SALMONELLA TYPHIMURIUM, Strain/Indicator: TA100, Metabolic Activation: RAT, LIVER, S-9, PCB, Method: STANDARD PLATE): inactive; negative

Structure (SMILES): CCCCOB(OCCCC)OCCCC
- mutagenic call (Test System: AMES SALMONELLA TYPHIMURIUM, Strain/Indicator: TA98, Metabolic Activation: HAMSTER, LIVER, S-9, AROCLOR 1254, Method: PREINCUBATION): inactive; negative
- mutagenic call [4]: inactive; negative
- mutagenic call (Test System: AMES SALMONELLA TYPHIMURIUM, Strain/Indicator: TA98, Metabolic Activation: RAT, LIVER, S-9, AROCLOR 1254, Method: PREINCUBATION): inactive; negative
- mutagenic call (Test System: AMES SALMONELLA TYPHIMURIUM, Strain/Indicator: TA100, Metabolic Activation: HAMSTER, LIVER, S-9, AROCLOR 1254, Method: PREINCUBATION): inactive; negative
- mutagenic call [5]: inactive; negative
- mutagenic call (Test System: AMES SALMONELLA TYPHIMURIUM, Strain/Indicator: TA100, Metabolic Activation: RAT, LIVER, S-9, AROCLOR 1254, Method: PREINCUBATION): inactive; negative
- mutagenic call (Test System: AMES SALMONELLA TYPHIMURIUM, Strain/Indicator: TA1535, Metabolic Activation: HAMSTER, LIVER, S-9, AROCLOR 1254, Method: PREINCUBATION): inactive; negative
- mutagenic call [6]: inactive; negative
- mutagenic call (Test System: AMES SALMONELLA TYPHIMURIUM, Strain/Indicator: TA1535, Metabolic Activation: RAT, LIVER, S-9, AROCLOR 1254, Method: PREINCUBATION): inactive; negative
- mutagenic call (Test System: AMES SALMONELLA TYPHIMURIUM, Strain/Indicator: TA1537, Metabolic Activation: HAMSTER, LIVER, S-9, AROCLOR 1254, Method: PREINCUBATION): inactive; negative
- mutagenic call [7]: inactive; negative
- mutagenic call (Test System: AMES SALMONELLA TYPHIMURIUM, Strain/Indicator: TA1537, Metabolic Activation: RAT, LIVER, S-9, AROCLOR 1254, Method: PREINCUBATION): inactive; negative

Structure (SMILES): CC(Br)C(=O)NCc1ccccc1 (configuration not stated)
- mutagenic call (Test System: AMES SALMONELLA TYPHIMURIUM, Strain/Indicator: TA100, Metabolic Activation: MOUSE, LIVER, S-9, AROCLOR 1254, Method: STANDARD PLATE): active; positive
- mutagenic call [3]: active; positive

Structure (SMILES): Cc1cc(Cl)ccc1N
- mutagenic call (End Point: IN VITRO CHROMOSOMAL ABERRATIONS, Test System: CHINESE HAMSTER OVARY CELLS, Metabolic Activation: NONE): inactive; negative; authors report that the study may not have allowed sufficient time for
- mutagenic call (End Point: IN VITRO CHROMOSOMAL ABERRATIONS, Test System: CHINESE HAMSTER OVARY CELLS, Metabolic Activation: RAT, LIVER, S-9, AROCLOR 1254): active; positive
- mutagenic call [1]: inactive; negative
- mutagenic call [2]: active; positive
- mutagenic call (Test System: AMES SALMONELLA TYPHIMURIUM, Strain/Indicator: TA98, Metabolic Activation: RAT, LIVER, S-9, CLOPHEN A50, Method: STANDARD PLATE): active; positive
- mutagenic call [3]: inactive; negative
- mutagenic call (Test System: AMES SALMONELLA TYPHIMURIUM, Strain/Indicator: TA100, Metabolic Activation: RAT, LIVER, S-9, AROCLOR 1254, Method: STANDARD PLATE): inactive; negative
- mutagenic call (Test System: AMES SALMONELLA TYPHIMURIUM, Strain/Indicator: TA100, Metabolic Activation: RAT, LIVER, S-9, CLOPHEN A50, Method: STANDARD PLATE): active; positive
- mutagenic call (Test System: AMES SALMONELLA TYPHIMURIUM, Strain/Indicator: TA1535, Metabolic Activation: NONE, Method: STANDARD PLATE): inactive; negative
- mutagenic call (Test System: AMES SALMONELLA TYPHIMURIUM, Strain/Indicator: TA1535, Metabolic Activation: RAT, LIVER, S-9, CLOPHEN A50, Method: STANDARD PLATE): inactive; negative
- mutagenic call (Test System: AMES SALMONELLA TYPHIMURIUM, Strain/Indicator: TA1537, Metabolic Activation: NONE, Method: STANDARD PLATE): inactive; negative
- mutagenic call (Test System: AMES SALMONELLA TYPHIMURIUM, Strain/Indicator: TA1537, Metabolic Activation: RAT, LIVER, S-9, CLOPHEN A50, Method: STANDARD PLATE): inactive; negative

Structure (SMILES): CCCCCCCCCCCCCCC1CO1 (configuration not stated)
- mutagenic call (Test System: AMES SALMONELLA TYPHIMURIUM, Strain/Indicator: TA98, Metabolic Activation: HAMSTER, LIVER, S-9, AROCLOR 1254 (10%), Method: PREINCUBATION): inactive; negative
- mutagenic call [4]: inactive; negative
- mutagenic call (Test System: AMES SALMONELLA TYPHIMURIUM, Strain/Indicator: TA98, Metabolic Activation: RAT, LIVER, S-9, AROCLOR 1254 (10%), Method: PREINCUBATION): inactive; negative
- mutagenic call (Test System: AMES SALMONELLA TYPHIMURIUM, Strain/Indicator: TA100, Metabolic Activation: HAMSTER, LIVER, S-9, AROCLOR 1254 (10%), Method: PREINCUBATION): inactive; negative
- mutagenic call [5]: inactive; negative
- mutagenic call (Test System: AMES SALMONELLA TYPHIMURIUM, Strain/Indicator: TA100, Metabolic Activation: RAT, LIVER, S-9, AROCLOR 1254 (10%), Method: PREINCUBATION): inactive; negative
- mutagenic call (Test System: AMES SALMONELLA TYPHIMURIUM, Strain/Indicator: TA1535, Metabolic Activation: HAMSTER, LIVER, S-9, AROCLOR 1254 (10%), Method: PREINCUBATION): inactive; negative
- mutagenic call [6]: inactive; negative
- mutagenic call (Test System: AMES SALMONELLA TYPHIMURIUM, Strain/Indicator: TA1535, Metabolic Activation: RAT, LIVER, S-9, AROCLOR 1254 (10%), Method: PREINCUBATION): inactive; negative
- mutagenic call (Test System: AMES SALMONELLA TYPHIMURIUM, Strain/Indicator: TA1537, Metabolic Activation: HAMSTER, LIVER, S-9, AROCLOR 1254 (10%), Method: PREINCUBATION): inactive; negative
- mutagenic call [7]: inactive; negative
- mutagenic call (Test System: AMES SALMONELLA TYPHIMURIUM, Strain/Indicator: TA1537, Metabolic Activation: RAT, LIVER, S-9, AROCLOR 1254 (10%), Method: PREINCUBATION): inactive; negative

Structure (SMILES): BrCc1c2ccccc2cc2c1ccc1ccccc12
- mutagenic call [1]: active; positive
- mutagenic call [3]: active; positive
- mutagenic call (Test System: CHINESE HAMSTER V-79, Strain/Indicator: V-79/8-AZAGUANINE, Metabolic Activation: NONE, Method: STANDARD PLATE): active; positive
- mutagenic call (Test System: E. COLI, Strain/Indicator: WP2, Metabolic Activation: NONE, Method: FLUCTUATION): active; positive
- mutagenic call (Test System: E. COLI, Strain/Indicator: WP2 UVRA, Metabolic Activation: NONE, Method: FLUCTUATION): active; positive
- mutagenic call (Test System: UDS HUMAN CELLS, Strain/Indicator: THY INCORP (NON-S-PHASE), Metabolic Activation: NONE, Method: LIQUID SCINTILLATION COUNTING): active; positive
- mutagenic call (Test System: UDS HUMAN FIBROBLASTS, Strain/Indicator: THY INCORP (NON-S-PHASE), Metabolic Activation: NONE, Method: AUTORADIOGRAPHY): active; positive
- mutagenic call (Test System: UDS RODENT CELLS, Strain/Indicator: THY INCORP (NON-S-PHASE), Metabolic Activation: NONE, Method: LIQUID SCINTILLATION COUNTING): active; positive
